Data on 2 compounds can be found in article PMC9030254, “Target Hopping from Protein Kinases to PXR: Identification of Small-Molecule Protein Kinase Inhibitors as Selective Modulators of Pregnane X Receptor from TüKIC Library” (Cells, 2022).

Molecules are shown by their SMILES.

Common to all, as to experiment: Kinase profiling
Holding throughout (format): biochemical

Experiment [1] has as its target T1, EPHA1 (Homo sapiens, UniProt P21709).
T1 construct: purchased ProQinase (Freiburg, Germany)
T1 sequence (P21709 26-976): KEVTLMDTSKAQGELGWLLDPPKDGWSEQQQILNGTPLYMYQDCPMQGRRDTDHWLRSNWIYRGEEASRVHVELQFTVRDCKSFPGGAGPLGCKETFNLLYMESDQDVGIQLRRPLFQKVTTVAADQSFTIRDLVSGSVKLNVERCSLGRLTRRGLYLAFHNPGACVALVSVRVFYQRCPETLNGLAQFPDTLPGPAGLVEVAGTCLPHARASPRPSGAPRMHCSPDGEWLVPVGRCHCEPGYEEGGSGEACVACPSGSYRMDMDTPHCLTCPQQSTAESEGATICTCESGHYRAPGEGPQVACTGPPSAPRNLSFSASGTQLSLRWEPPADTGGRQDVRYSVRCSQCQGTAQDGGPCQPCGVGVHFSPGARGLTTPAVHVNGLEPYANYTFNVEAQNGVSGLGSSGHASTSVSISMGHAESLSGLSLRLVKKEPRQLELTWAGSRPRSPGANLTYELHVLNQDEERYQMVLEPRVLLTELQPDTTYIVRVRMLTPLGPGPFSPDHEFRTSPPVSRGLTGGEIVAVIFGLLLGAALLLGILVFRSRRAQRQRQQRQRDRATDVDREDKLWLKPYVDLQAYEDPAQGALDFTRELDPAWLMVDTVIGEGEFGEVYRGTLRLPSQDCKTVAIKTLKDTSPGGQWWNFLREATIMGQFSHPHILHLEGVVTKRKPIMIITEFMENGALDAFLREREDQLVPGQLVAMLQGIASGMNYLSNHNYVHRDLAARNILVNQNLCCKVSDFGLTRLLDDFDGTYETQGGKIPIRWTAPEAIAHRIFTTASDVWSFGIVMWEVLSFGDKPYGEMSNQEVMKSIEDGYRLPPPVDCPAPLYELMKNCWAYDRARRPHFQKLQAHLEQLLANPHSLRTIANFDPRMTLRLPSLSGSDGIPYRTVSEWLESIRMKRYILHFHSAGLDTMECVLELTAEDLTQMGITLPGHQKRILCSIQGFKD
Here is the method: (§1) The analysis was performed by ProQinase (Freiburg, Germany).

Experiment [2] addresses T2, FGFR3 (Homo sapiens, UniProt P22607).
T2 construct: purchased ProQinase (Freiburg, Germany)
The procedure:
as §1

Experiment [3] addresses T3, CDK12/CycK (Homo sapiens, UniProt Q9NYV4).
T3 construct: purchased ProQinase (Freiburg, Germany)
Here is the method:
as §1

Experiment [4] has as its target T4, SRC (Homo sapiens, UniProt P12931).
T4 construct: purchased ProQinase (Freiburg, Germany)
The procedure:
as §1

Experiment [5] addresses T5, PKCmu (Homo sapiens, UniProt Q15139).
T5 construct: purchased ProQinase (Freiburg, Germany)
T5 sequence (Q15139 1-912): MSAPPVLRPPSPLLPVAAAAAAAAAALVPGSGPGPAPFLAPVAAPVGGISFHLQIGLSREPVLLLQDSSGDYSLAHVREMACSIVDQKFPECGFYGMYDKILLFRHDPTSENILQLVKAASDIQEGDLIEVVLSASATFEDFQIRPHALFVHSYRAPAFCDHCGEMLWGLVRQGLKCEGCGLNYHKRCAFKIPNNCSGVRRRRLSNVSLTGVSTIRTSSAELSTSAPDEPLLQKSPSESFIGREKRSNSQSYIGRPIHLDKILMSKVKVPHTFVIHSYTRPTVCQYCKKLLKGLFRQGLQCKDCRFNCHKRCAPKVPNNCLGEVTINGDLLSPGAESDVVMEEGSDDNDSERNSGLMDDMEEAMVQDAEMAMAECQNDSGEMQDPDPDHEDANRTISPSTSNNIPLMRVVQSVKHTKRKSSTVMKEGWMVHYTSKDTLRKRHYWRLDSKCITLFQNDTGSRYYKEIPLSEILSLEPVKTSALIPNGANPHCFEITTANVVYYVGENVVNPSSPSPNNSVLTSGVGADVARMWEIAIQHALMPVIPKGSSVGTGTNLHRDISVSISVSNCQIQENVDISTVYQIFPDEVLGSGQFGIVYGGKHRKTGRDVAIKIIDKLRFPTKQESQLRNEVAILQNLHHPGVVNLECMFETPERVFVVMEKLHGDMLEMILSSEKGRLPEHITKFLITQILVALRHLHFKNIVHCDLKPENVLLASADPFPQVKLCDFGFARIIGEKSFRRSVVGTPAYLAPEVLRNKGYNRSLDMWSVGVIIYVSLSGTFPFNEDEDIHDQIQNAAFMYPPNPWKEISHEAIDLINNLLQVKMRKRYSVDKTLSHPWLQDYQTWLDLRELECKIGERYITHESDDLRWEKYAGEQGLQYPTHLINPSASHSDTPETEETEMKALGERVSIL
The procedure: as §1

For experiment [6], the target named is T6, MAP3K11 (Homo sapiens, UniProt Q16584).
T6 construct: purchased ProQinase (Freiburg, Germany)
T6 sequence (Q16584 whole entry): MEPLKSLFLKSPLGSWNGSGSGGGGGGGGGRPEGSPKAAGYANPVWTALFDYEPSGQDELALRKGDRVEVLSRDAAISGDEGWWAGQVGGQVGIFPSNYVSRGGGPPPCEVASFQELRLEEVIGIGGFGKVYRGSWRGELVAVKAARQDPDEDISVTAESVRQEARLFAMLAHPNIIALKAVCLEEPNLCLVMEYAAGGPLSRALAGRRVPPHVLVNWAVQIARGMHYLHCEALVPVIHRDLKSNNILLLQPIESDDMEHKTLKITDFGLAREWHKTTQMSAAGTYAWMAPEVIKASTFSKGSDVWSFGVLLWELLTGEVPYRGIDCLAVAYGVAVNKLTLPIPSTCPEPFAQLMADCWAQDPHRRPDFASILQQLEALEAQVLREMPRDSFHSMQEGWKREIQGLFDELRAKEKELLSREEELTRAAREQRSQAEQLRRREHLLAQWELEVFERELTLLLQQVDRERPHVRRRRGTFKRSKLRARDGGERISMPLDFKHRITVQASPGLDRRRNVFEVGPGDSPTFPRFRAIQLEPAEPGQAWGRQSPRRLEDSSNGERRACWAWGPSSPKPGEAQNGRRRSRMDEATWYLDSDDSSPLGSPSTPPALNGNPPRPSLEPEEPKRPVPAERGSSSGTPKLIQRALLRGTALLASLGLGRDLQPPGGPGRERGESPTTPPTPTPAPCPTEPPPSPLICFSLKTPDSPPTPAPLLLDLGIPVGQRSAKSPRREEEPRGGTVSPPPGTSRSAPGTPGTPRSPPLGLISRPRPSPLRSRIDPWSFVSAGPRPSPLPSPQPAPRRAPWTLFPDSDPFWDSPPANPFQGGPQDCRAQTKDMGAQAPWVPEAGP
The procedure: as §1

Experiment [7] concerns the target T7, MKNK2 (Homo sapiens, UniProt Q9HBH9).
T7 construct: purchased ProQinase (Freiburg, Germany)
The procedure: as §1

In experiment [8] the target is T8, NEK3 (Homo sapiens, UniProt P51956).
T8 construct: purchased ProQinase (Freiburg, Germany)
T8 sequence (P51956 1-506): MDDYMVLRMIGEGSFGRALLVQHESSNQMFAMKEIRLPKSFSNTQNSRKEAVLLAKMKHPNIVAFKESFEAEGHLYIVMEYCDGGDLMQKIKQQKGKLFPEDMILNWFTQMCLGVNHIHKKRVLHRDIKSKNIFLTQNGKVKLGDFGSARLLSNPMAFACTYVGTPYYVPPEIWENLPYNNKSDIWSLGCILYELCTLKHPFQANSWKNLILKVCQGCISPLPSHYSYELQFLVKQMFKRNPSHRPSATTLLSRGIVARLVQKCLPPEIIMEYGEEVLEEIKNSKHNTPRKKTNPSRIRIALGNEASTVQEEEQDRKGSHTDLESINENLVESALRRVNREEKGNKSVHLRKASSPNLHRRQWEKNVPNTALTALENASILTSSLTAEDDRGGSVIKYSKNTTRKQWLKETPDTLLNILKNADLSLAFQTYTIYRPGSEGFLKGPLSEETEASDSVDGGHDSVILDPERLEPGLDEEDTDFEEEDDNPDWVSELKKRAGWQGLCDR
Here is the method: as §1

T4 sequence (P12931 whole entry): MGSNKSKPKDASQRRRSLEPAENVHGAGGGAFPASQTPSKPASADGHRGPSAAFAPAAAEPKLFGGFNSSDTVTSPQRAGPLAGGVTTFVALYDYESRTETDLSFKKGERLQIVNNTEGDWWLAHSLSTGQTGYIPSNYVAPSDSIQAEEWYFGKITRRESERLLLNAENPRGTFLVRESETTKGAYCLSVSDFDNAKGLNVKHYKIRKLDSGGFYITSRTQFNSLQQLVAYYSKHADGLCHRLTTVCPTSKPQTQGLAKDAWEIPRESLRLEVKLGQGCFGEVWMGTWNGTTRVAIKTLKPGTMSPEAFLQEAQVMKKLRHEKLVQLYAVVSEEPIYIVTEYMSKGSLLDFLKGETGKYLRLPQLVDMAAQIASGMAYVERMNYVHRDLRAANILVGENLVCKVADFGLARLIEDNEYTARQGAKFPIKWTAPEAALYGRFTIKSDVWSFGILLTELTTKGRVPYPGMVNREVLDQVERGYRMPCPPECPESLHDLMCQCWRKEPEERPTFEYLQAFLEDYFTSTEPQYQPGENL
T7 sequence (Q9HBH9 whole entry): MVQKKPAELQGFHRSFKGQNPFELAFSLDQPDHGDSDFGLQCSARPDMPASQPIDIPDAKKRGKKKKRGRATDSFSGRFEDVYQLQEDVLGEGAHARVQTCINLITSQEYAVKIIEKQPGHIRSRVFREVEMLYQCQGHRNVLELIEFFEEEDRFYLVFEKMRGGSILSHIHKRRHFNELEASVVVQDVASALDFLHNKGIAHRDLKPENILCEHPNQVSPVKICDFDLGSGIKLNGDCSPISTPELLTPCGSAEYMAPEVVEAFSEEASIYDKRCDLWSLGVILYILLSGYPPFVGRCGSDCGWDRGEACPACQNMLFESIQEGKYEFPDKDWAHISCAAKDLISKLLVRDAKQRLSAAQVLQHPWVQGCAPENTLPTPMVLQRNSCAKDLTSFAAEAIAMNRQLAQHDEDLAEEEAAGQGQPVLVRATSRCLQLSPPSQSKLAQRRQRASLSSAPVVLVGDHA
T3 sequence (Q9NYV4 whole entry): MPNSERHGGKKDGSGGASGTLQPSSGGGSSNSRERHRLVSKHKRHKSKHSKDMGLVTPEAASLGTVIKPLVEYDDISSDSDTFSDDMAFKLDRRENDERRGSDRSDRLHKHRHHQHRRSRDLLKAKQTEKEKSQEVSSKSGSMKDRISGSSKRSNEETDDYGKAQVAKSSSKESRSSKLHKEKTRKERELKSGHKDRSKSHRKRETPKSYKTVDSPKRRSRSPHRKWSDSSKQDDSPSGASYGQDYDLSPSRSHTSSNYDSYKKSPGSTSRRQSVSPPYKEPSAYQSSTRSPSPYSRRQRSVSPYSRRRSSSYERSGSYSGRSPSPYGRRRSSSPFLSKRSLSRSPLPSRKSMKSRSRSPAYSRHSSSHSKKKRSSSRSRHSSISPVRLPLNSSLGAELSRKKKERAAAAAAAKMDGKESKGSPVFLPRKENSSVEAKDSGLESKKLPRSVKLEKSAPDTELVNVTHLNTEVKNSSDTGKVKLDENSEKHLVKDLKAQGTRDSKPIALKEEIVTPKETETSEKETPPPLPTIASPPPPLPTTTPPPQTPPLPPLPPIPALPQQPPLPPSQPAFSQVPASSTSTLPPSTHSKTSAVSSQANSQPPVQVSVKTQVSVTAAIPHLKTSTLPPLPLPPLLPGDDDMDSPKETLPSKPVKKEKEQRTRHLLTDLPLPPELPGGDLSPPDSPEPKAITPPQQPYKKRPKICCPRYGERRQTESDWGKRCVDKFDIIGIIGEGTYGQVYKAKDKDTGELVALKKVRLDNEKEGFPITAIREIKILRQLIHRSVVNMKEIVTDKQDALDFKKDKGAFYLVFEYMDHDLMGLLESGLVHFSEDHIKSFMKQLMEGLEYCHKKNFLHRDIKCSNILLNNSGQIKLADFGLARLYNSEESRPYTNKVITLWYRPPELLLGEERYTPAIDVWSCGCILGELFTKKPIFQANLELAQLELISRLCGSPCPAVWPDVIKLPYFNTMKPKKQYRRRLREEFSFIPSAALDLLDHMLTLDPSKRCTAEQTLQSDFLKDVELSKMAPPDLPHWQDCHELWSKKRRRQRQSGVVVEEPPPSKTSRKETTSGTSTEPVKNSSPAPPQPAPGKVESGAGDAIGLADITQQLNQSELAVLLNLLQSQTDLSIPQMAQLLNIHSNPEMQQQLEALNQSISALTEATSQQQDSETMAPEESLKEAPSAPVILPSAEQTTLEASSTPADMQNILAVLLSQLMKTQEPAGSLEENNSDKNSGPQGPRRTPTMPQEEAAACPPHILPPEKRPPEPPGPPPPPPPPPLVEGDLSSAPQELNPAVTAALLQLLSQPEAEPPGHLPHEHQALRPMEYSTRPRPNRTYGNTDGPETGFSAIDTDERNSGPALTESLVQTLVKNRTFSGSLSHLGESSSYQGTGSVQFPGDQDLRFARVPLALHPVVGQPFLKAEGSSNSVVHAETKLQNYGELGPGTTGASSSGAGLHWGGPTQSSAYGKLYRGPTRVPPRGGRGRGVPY
T3 sequence (O75909 whole entry partner): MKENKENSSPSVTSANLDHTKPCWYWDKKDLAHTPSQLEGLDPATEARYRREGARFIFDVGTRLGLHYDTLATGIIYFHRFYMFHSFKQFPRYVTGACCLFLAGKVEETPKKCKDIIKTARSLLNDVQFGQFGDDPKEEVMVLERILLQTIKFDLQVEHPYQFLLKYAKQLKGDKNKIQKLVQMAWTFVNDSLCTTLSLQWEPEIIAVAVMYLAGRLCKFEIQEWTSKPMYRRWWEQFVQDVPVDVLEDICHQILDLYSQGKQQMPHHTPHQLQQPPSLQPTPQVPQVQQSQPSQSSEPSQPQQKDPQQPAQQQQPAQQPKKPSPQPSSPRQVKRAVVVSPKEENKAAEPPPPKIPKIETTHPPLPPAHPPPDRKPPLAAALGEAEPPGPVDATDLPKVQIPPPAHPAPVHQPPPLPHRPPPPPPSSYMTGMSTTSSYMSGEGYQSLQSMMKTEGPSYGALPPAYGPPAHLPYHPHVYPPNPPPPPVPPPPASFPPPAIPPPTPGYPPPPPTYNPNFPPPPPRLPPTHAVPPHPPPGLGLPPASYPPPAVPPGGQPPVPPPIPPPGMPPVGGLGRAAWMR
T2 sequence (P22607 23-806): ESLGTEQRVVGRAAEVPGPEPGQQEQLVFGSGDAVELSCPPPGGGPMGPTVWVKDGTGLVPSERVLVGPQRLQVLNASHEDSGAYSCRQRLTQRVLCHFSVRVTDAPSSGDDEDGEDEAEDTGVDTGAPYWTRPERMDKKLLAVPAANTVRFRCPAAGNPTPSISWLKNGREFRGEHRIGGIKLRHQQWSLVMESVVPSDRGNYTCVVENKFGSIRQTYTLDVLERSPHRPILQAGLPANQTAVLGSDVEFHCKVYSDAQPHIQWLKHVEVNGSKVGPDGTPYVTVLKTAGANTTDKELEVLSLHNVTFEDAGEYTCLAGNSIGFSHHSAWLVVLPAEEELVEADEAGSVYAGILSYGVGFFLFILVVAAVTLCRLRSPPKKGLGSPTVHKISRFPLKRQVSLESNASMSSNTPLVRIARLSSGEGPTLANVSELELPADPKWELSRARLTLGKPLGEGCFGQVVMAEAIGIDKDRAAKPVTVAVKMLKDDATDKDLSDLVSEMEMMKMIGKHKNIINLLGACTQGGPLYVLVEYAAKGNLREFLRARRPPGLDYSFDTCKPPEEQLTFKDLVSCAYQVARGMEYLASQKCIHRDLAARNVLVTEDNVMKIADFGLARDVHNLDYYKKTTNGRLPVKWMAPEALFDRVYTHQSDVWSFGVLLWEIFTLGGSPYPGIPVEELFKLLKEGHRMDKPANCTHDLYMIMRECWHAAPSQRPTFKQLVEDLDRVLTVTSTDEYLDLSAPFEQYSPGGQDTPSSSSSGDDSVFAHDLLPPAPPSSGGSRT

On to `O=C(Cc1ccccc1)Nc1ccc(F)c(Nc2ccc3c(c2)CCCCC3=O)c1` [Compound 100], for which the Residual activity in experiment [1] (1.0E-05 M) was 71 % of control; in experiment [1] (1.0E-06 M), 83 % of control; in experiment [2] (1.0E-05 M), 76 % of control; in experiment [2] (1.0E-06 M), 98 % of control; in experiment [3] (1.0E-05 M), 100 % of control; in experiment [3] (1.0E-06 M), 104 % of control. Further, the Residual activity is given as 105 % of control in experiment [4] (1.0E-05 M); 117 % of control in experiment [4] (1.0E-06 M); 94 % of control in experiment [5] (1.0E-05 M); 106 % of control in experiment [5] (1.0E-06 M); 118 % of control in experiment [6] (1.0E-05 M); 109 % of control in experiment [6] (1.0E-06 M). The Residual activity is reported as 115 % of control in experiment [7] (1.0E-05 M), 112 % of control in experiment [7] (1.0E-06 M), 92 % of control in experiment [8] (1.0E-05 M) and 104 % of control in experiment [8] (1.0E-06 M).
As to `O=C(Nc1ccc(F)c(Nc2ccc3c(c2)CCCCC3=O)c1)c1cccc(F)c1` [Compound 109], the Residual activity in experiment [1] (1.0E-05 M) was 85 % of control; in experiment [1] (1.0E-06 M) it was 91 % of control; in experiment [2] (1.0E-05 M) it was 95 % of control; in experiment [2] (1.0E-06 M), 110 % of control; in experiment [3] (1.0E-05 M), 99 % of control; in experiment [3] (1.0E-06 M), 105 % of control. For the same compound, the Residual activity in experiment [4] (1.0E-05 M) is 100 % of control; in experiment [4] (1.0E-06 M) it was 107 % of control; in experiment [5] (1.0E-05 M), 96 % of control; in experiment [5] (1.0E-06 M), 95 % of control; in experiment [6] (1.0E-05 M), 110 % of control; in experiment [6] (1.0E-06 M) it was 108 % of control. Besides, the Residual activity is 107 % of control in experiment [7] (1.0E-05 M), 104 % of control in experiment [7] (1.0E-06 M), 97 % of control in experiment [8] (1.0E-05 M) and 96 % of control in experiment [8] (1.0E-06 M).
